Test results reported in patent publication US11389505B2, “Method of managing joint pain” (ORTHOTROPHIX, INC., priority 2017, dated 2022).
Ends that are not written are not given here.

System: subjects with osteoarthritis of the knees
Test: Clinical study of TPX-100, safety and tolerability of intra-articular administration
Assay type: in vivo, human

Substance: TDLQERGDNDISPFSGDGQPFKD-NH2 [TPX-100]
- Dose-limiting toxicities (Part A, 20, 50, 100 and 200 mg per intra-articular injection, 4 weekly injections): no dose-limiting toxicities
- Severe adverse events related to the drug treatment (throughout the study period): no severe adverse events likely or possibly related to the drug treatment
- Severity of treatment-related adverse events (throughout the study period): mild or moderate, transient
- Safety and tolerability of treatments (throughout the study period (12 months)): safe and well tolerated
